These results are taken from PMC6614837 (Nucleic Acids Research, 2019).

Assay [1] has as its target T1, RNase P holoenzyme from Thermotoga maritima (Thermotoga maritima, UniProt Q9X1H4).
T1 construct: made in house
T1 sequence (Q9X1H4 1-117): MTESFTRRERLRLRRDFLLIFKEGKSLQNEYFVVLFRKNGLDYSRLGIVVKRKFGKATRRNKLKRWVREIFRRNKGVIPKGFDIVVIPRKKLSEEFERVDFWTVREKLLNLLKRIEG
In words: Real-time fluorescence-based (FRET) RNase P activity assay with minihelix (Mh) substrate. It is filed as biochemical. The conditions noted are these: for IC50: fluorescent Mh substrate 270 nM, holoenzyme 33 nM, 10% DMSO, 37°C, 400 mM AmOAc, 100 mM MgCl2. Put shortly:
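Reconstituted holoenzyme (P RNA:P protein 1:1.1) at 33 nM with 270 nM minihelix labelled Alexa Fluor 488/BHQ quencher, in buffer H (pH 7.4, 400 mM AmOAc, 100 mM MgCl2), 10% DMSO, 37°C. Cleavage followed as fluorescence increase (ex 485, em 535 nm); initial velocities from linear slopes.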

In assay [2] the test system is 3'-biotinylated minihelix (Mh; pMini3bpUG) (RNA, hairpin) GAUCUGAAUGCGGAAACGCGCCAC
In words: biolayer interferometry. The conditions noted are these: Mg2+ 10 mM, NH4+ 100 mM (ammonium acetate); 20 mM HEPES pH 7.4, DMSO, 30°C; highest concentration tested 1 mM. (Biolayer interferometry detects binding as a change in optical thickness at a sensor tip.)

A further assay deals with T2, P protein (Thermotoga maritima, UniProt Q9X1H4).
T2 construct: GST (cleaved yes); made in house; host or cells: E. coli BL21(DE3)pLysS
T2 sequence (Q9X1H4 1-117): T1 sequence (Q9X1H4 1-117)
In words: Binding hindrance of the 5′ RNA leader to the P protein (BLI). Further details: species or system T. maritima. The conditions noted are these: compound 100 μM, 5′ RNA leader 5 μM. As to the method:
A 5′ RNA leader sequence with 10-bases 5′-GGAAAAAGAU-3′ was purchased from IDT and used at a concentration of 5 μM. This sequence is the same used to obtain the crystal structure of the RNase P holoenzyme ([19]). The His-tagged P protein was immobilized on Ni-NTA biosensors at 0.05 mg/ml (3.4 μM). […] The steps performed on the assay and their periods were: P protein immobilization (400 s), wash (100 s), baseline […] (1000 rpm), compound association (800 s), compound dissociation (200 s) (500 rpm), baseline (100 s), 5′ leader association (200 s), 5′ leader dissociation (200 s) (1000 rpm). The assay was performed at 30°C. The compounds were used at 100 μM throughout. All assay steps were performed in 20 mM HEPES pH 7.4, 100 mM ammonium acetate, 10 mM MgCl2, 5% DMSO.
5 ′ RNA leader. (A) Experimental design of 5′ RNA leader binding hindrance experiments. Figures B-F are based on the analysis region depicted in panel A, where association and dissociation of the 5′ RNA leader to the P protein (TmP) is measured over time. P protein at 3.5 µM was immobilized on Ni-NTA biosensors for 300 s, while compounds were assayed at 100 µM and the […]
binding, in contrast with hematein (E) and purpurin (F).
(1 picture or pasted object on this page, not shown here)

The structures appear in SMILES notation. “Also recorded” adds a separate entry of the source.

On to `O=C1C=C2CC3(O)COc4c(ccc(O)c4O)C3=C2C=C1O` (stereo not drawn) [Hematein, 3,4,6a,10-tetrahydroxy-6a,7-dihydroindeno[2,1-c]chromen-9(6H)-one], for which, in assay [1], the IC50 was 4.5 ± 0.9 µM. The binding result in assay [2] was “no”. For the same molecule, the “Hindrance of 5′ RNA leader binding to the P protein” value (“Hindrance … to the P protein” for short) on P protein is reported as “hinder the binding of the P protein”; on P protein (listed as hematein) it was “displayed leader-binding hindrance”.
Regarding `O=C1c2ccccc2C(=O)c2c(O)c(O)cc(O)c21` [Purpurin, 1,2,4-trihydroxyanthraquinone], the Ki in assay [1] (competitive inhibition model, varying fluorescent Mh substrate) was determined as 1.9 ± 0.4 µM. In addition, the IC50 in assay [1] is 96.2 ± 21.7 µM. For the same molecule, the binding result in assay [2] is recorded as “no”. Besides, the “Hindrance … to the P protein” value on P protein was “hinders the binding of the P protein to the 5′ RNA leader”; at P protein (listed as purpurin), “hinder the binding of the P protein; also recorded: interferes with the binding of the leader to the P protein”.
`O=C1C=CC(=O)c2c(O)cccc21` [Juglone, 5-hydroxy-1,4-naphthoquinone]: in assay [1], the IC50 came to 12.8 ± 1.9 µM. Further, the binding result in assay [2] is given as “no”. Besides, the “Hindrance … to the P protein” value at P protein is reported as “do not impede the leader binding”.

As a reminder, the IC50 is the point on the concentration scale where inhibition reaches its midpoint. As a reminder, the Ki is the equilibrium dissociation constant of an inhibitor or competing ligand from its target.
